Source: paper PMC7413254 (Nature Communications, 2020)

Experiments:
Format in all cases: cell-based
PfCRT^Ecu1110 [1] = target: T1, PfCRT^Ecu1110 (Plasmodium falciparum, UniProt Q9N623, A220S/I356L/K76T/N326D); assay: [3H]CQ uptake into Xenopus oocytes, cis-inhibition by unlabelled solute; conditions: for PfCRT-mediated [3H]CQ transport, cis-inhibition (% PfCRTEcu1110 control): PfCRTEcu1110 oocytes, background [3H]CQ accumulation subtracted, normalised to oocyte type control; for [3H]CQ transport (% PfCRTEcu1110 control), cis-inhibition, PfCRTEcu1110: PfCRT-mediated component (background subtracted), sheet title says normalised to PfCRTDd2 control, mean ± SEM, SEM
Excerpt: (§1) The orientation of PfCRT in the parasite’s DV membrane, and also in the oocyte plasma membrane, is such that its N- and C-termini extend into the cytosol. The oocytes were suspended in a reaction buffer adjusted to pH 5.5 to mimic the pH of the DV lumen[1],[2]. In this scenario, the transport of a substrate via PfCRT from the acidic extracellular solution into the oocyte cytosol[15] is analogous to the parasite’s PfCRT-mediated efflux of a substrate from the acidic DV and into the cytosol. Unless specified otherwise, this is the direction in which substrate transport was measured in the oocyte assays.
(§2) Unless specified otherwise, the transport assays were conducted over 1.5 h at 27.5 °C and the reaction buffer was ND96 (96 mM NaCl, 2 mM KCl, 1 mM MgCl2, 1.8 mM CaCl2, 10 mM MES and 10 mM Tris-base) at pH 5.5.
(§3) Ten oocytes were washed twice with the relevant ND96 buffer. […] The assay was terminated by removing the reaction buffer and washing the oocytes with ice-cold ND96 buffer. The oocytes were lysed in 10% (w/v) sodium dodecyl sulfate (SDS) and the radioactivity accumulated within each oocyte was measured with a MicroBeta^2 microplate liquid scintillation analyser (PerkinElmer).
(§4) At least four independent experiments were performed (on different days and using oocytes from different frogs), and within each experiment measurements were made from ten oocytes per treatment.

PfCRT^Dd2 [2] = target: T2, PfCRT^Dd2 (Plasmodium falciparum, UniProt Q9N623, A220S/I356T/K76T/M74I/N326S/N75E/Q271E/R371I); assay: as above; conditions: PfCRTDd2 oocytes, background [3H]CQ accumulation subtracted, normalised to oocyte type control
Excerpt: as §1, §2, §3, §4

PfCRT^Ecu1110 [3] = target: T1, PfCRT^Ecu1110; assay: cell-based; conditions: for PfCRT-mediated [3H]CQ transport, trans-stimulation (% PfCRTEcu1110 control): PfCRTEcu1110 oocytes, normalised to oocyte type control; for [3H]CQ transport (% PfCRTDd2 control), trans-stimulation, PfCRTEcu1110: PfCRT-mediated component (background subtracted), sheet title says normalised to PfCRTDd2 control, mean ± SEM, SEM
Experimental: as §2
(§5) The intracellular concentrations were calculated using previous estimates of the volume of stage V–VI oocytes (~400 nL[60]). […] The oocytes were injected with VF-6 suspended in 25 nL ND96 buffer adjusted to pH 5.0, 5.5, 6.0 or 7.0, which corresponded to the injection of 2.5–250 fmol of H^+. The Na^+-dependence of the trans-stimulatory effect of VF-6 was assessed by injecting the oocytes with VF-6 suspended in ND96 buffer (pH 5.5) or a Na^+-free version of this buffer (the Na^+ was replaced with choline).
as §4

PfCRT^3D7 = PfCRT^3D7 (Plasmodium falciparum, UniProt Q8IBZ9); assay: cell-based; conditions: PfCRT3D7 oocytes, normalised to oocyte type control
Experimental: as §2, §5, §4

PfCRT^Dd2 [4] = target: T2, PfCRT^Dd2; assay: cell-based; conditions: for PfCRT-mediated [3H]CQ transport, trans-stimulation (% PfCRTDd2 control): PfCRTDd2 oocytes, normalised to oocyte type control; for [3H]CQ transport (% PfCRTDd2 control), trans-stimulation, PfCRTDd2: PfCRT-mediated component (background subtracted), mean ± SEM, SEM
Experimental: as §2, §5, §4

[5] = [test solute]i = 5 mM (intracellular)
[6] = [test solute]i = 45 mM (intracellular; 30 mM for some solutes due to solubility)
[7] = [test solute]i = 5 mM (injected)
[8] = [test solute]i = 45 mM (30 mM for some solutes due to solubility)

T2 sequence (Q9N623 whole entry A220S/I356T/K76T/M74I/N326S/N75E/Q271E/R371I): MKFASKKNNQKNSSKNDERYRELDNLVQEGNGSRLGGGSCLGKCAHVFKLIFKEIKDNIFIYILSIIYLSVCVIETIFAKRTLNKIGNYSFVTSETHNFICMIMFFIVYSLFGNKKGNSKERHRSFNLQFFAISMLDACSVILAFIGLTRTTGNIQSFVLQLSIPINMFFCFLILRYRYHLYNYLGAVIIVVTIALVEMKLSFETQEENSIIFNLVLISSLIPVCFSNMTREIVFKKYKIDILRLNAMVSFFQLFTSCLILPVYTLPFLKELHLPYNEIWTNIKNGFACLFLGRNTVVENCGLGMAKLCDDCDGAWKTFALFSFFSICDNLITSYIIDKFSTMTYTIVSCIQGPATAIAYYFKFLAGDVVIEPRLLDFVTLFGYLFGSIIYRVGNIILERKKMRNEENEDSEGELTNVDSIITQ
T1 sequence (Q9N623 whole entry A220S/I356L/K76T/N326D): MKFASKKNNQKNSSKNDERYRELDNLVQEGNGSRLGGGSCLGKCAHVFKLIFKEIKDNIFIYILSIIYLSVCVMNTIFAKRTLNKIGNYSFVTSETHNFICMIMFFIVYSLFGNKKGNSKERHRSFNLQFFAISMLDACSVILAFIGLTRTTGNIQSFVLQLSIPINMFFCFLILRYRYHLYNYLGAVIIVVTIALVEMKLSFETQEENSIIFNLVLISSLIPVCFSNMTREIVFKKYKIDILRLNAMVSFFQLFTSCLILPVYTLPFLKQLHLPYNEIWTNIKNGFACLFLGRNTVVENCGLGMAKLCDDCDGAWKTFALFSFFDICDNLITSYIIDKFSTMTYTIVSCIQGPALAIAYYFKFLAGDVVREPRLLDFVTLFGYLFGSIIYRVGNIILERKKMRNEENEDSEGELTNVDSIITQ
PfCRT^3D7, sequence (Q8IBZ9 59-398): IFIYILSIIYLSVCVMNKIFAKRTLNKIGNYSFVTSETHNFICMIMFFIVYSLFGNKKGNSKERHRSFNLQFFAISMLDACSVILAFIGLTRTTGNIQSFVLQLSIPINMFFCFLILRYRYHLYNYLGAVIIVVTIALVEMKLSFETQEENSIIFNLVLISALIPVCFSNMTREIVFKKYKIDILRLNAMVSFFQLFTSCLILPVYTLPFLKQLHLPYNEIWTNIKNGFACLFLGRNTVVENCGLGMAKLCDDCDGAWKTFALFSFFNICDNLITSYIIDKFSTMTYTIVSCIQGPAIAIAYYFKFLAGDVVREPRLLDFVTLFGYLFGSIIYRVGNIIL

Row | Substance | PfCRT-mediated [3H]CQ transport, cis-inhibition (% PfCRTEcu1110 control) (PfCRT^Ecu1110 [1]; [test solute] = 0.5 mM) | PfCRT-mediated [3H]CQ transport, cis-inhibition (% PfCRTEcu1110 control) (PfCRT^Ecu1110 [1]; [test solute] = 1 mM) | PfCRT-mediated [3H]CQ transport, cis-inhibition (% PfCRTEcu1110 control) (PfCRT^Ecu1110 [1]; [test solute] = 2 mM) | [3H]CQ transport (% PfCRTEcu1110 control), cis-inhibition, PfCRTEcu1110 (PfCRT^Ecu1110 [1]; [test solute] = 0.5 mM) [% PfCRTEcu1110 control] | [3H]CQ transport (% PfCRTEcu1110 control), cis-inhibition, PfCRTEcu1110 (PfCRT^Ecu1110 [1]; [test solute] = 2 mM) [% PfCRTEcu1110 control] | PfCRT-mediated [3H]CQ transport, cis-inhibition (% PfCRTDd2 control) (PfCRT^Dd2 [2]; [test solute] = 0.5 mM) | PfCRT-mediated [3H]CQ transport, cis-inhibition (% PfCRTDd2 control) (PfCRT^Dd2 [2]; [test solute] = 1 mM) | PfCRT-mediated [3H]CQ transport, cis-inhibition (% PfCRTDd2 control) (PfCRT^Dd2 [2]; [test solute] = 2 mM) | PfCRT-mediated [3H]CQ transport, trans-stimulation (% PfCRTEcu1110 control) (PfCRT^Ecu1110 [3]; [5]) | PfCRT-mediated [3H]CQ transport, trans-stimulation (% PfCRTEcu1110 control) (PfCRT^Ecu1110 [3]; [6]) | [3H]CQ transport (% PfCRTDd2 control), trans-stimulation, PfCRTEcu1110 (PfCRT^Ecu1110 [3]; [7]) [% PfCRTEcu1110 control] | [3H]CQ transport (% PfCRTDd2 control), trans-stimulation, PfCRTEcu1110 (PfCRT^Ecu1110 [3]; [8]) [% PfCRTEcu1110 control] | PfCRT-mediated [3H]CQ transport, trans-stimulation (% PfCRT3D7 control) (PfCRT^3D7; [5]) | PfCRT-mediated [3H]CQ transport, trans-stimulation (% PfCRT3D7 control) (PfCRT^3D7; [6]) | PfCRT-mediated [3H]CQ transport, trans-stimulation (% PfCRTDd2 control) (PfCRT^Dd2 [4]; [5]) | PfCRT-mediated [3H]CQ transport, trans-stimulation (% PfCRTDd2 control) (PfCRT^Dd2 [4]; [6]) | [3H]CQ transport (% PfCRTDd2 control), trans-stimulation, PfCRTDd2 (PfCRT^Dd2 [4]; [7]) [% PfCRTDd2 control] | [3H]CQ transport (% PfCRTDd2 control), trans-stimulation, PfCRTDd2 (PfCRT^Dd2 [4]; [8]) [% PfCRTDd2 control] | [3H]CQ transport (% PfCRTEcu1110 control), cis-inhibition, PfCRTEcu1110 (PfCRT^Ecu1110 [1]; [test solute] = 1 mM) [% PfCRTEcu1110 control]
1 | VHLT [VT-4] | 56 ± 4.1 | 39 ± 4.1 | 27 ± 1.4 | 18 ± 0.3 | 9.0 ± 0.2 | 51 ± 2.0 | 39 ± 2.8 | 16 ± 0.4 | 99 ± 3.2 | 97 ± 3.6 | 30 ± 1.3 | 29 ± 1.5 | 97 ± 3.2 | 95 ± 4.7 | 97 ± 4.6 | 98 ± 3.2 | 97 ± 4.6 | 98 ± 3.2 | –
2 | SHCLLVT [ST-7] | 39 ± 1.1 | 31 ± 2.5 | 19 ± 1.4 | 12 ± 0.5 | 6.0 ± 0.02 | 38 ± 1.0 | 27 ± 1.3 | 12 ± 0.1 | 130 ± 3.2 | 136 ± 4.3 | 39 ± 1.3 | 41 ± 2.2 | 140 ± 4.3 | 192 ± 4.6 | 97 ± 3.2 | 113 ± 2.0 | 97 ± 3.2 | 113 ± 2.0 | 10 ± 0.1
3 | HAGEYG [HG-6] | 35 ± 4.6 | 27 ± 4.1 | – | 11 ± 0.5 | 4.0 ± 0.01 | 36 ± 2.1 | 22 ± 0.9 | 9.3 ± 0.1 | 98 ± 2.4 | 96 ± 3.3 | 30 ± 1.5 | 29 ± 1.3 | 136 ± 3.6 | 190 ± 4.2 | 101 ± 3.3 | 98 ± 2.5 | 101 ± 3.3 | 98 ± 2.5 | 9.0 ± 0.05
4 | YPWTQ [YQ-5] | 72 ± 6.9 | 61 ± 1.4 | 49 ± 2.5 | 23 ± 0.4 | 15 ± 0.5 | 67 ± 2.2 | 51 ± 3.2 | 27 ± 1.1 | 99 ± 3.5 | 98 ± 2.2 | 30 ± 1.0 | 30 ± 1.3 | 96 ± 3.5 | 97 ± 3.7 | 97 ± 4.6 | 96 ± 2.7 | 97 ± 4.6 | 96 ± 2.7 | 19 ± 0.3
5 | VHLTPEEK [VK-8] | 64 ± 2.7 | 49 ± 3.1 | 41 ± 2.3 | – | – | 69 ± 3.1 | 63 ± 5.2 | 25 ± 0.3 | 98 ± 2.9 | 100 ± 4.2 | – | – | 132 ± 3.2 | 166 ± 4.2 | 100 ± 3.4 | 98 ± 2.3 | – | – | –
